Laboratory results: patent US9956301B2, “Complex of garcinol, cyclodextrin and method thereof” (Indus Biotech Private Limited, priority 2010, dated 2018)
Like-named read-outs stand apart in the source and are kept apart here.

What was measured:
[1] = system: Doxorubicin induced cardiac dysfunction; test: Activity of Garcinol against Doxorubicin induced cardiac dysfunction; format: in vivo; details: rats; for Glutathione / Lipid Peroxidation: heart tissue, Garcinol 100 mg/kg p.o. + Doxorubicin 10 mg/kg i.v., n = 4
Experimental: Male Wistar rats were pretreated with Garcinol at 10, 25, 50, 100 and 200 mg/kg (p.o.) for 18 days. On day 16, Doxorubicin at a dose of 10 mg/kg (i.v.) was administered intravenously. On day 18, animals were sacrificed. […] Elevated oxidative stress on the heart was also seen from increased lipid peroxidation and decreased glutathione (GSH) concentrations.

[2] = system: Doxorubicin induced cardiac dysfunction; format: in vivo; details: rats, Doxorubicin Control = Doxorubicin alone, Mean ± SEM; for Glutathione / Lipid Peroxidation: heart tissue, Test Molecule 20 mg/kg p.o. + Doxorubicin 10 mg/kg i.v., n = 4; for Diastolic Blood Pressure / Mean Arterial Blood Pressure / Systolic Blood Pressure: Test Molecule 20 mg/kg p.o. 18 days + Doxorubicin 10 mg/kg i.v. day 16; for Diastolic Blood Pressure / Mean Arterial Blood Pressure / Systolic Blood Pressure / Difference in Heart Rate / Difference in QT interval / Difference in ST interval: n = 6; for Difference in Heart Rate / Difference in QT interval / Difference in ST interval: pretreatment p.o. 18 days (Test Molecule 20 mg/kg) + Doxorubicin 10 mg/kg i.v. day 16
Experimental: Male Wistar rats were pretreated with 20 mg/kg (p.o.) of test molecule for 18 days. On day 16, Doxorubicin at a dose of 10 mg/kg (i.v.) was administered intravenously. On day 18, animals were sacrificed. […] It also induces significant prolongation of QT and ST intervals. Significant reduction of mean arterial blood pressure, systolic and diastolic blood pressures were observed. Elevated oxidative stress on the heart was also seen from increased lipid peroxidation and decreased glutathione (GSH) concentrations.

[3] = system: cardiac dysfunction induced by chronic Doxorubicin administration; test: Effect of test molecule in chronic administration of Doxorubicin; format: in vivo, Male Wistar rats; details: for Cytoplasmic Eosinophilia / Cytoplasmic vacuoles / Inflammation / Myocardial necrosis / Vascular congestion: heart histopathology, day 30, chronic Doxorubicin, Test Molecule 20 mg/kg; for Cytoplasmic Eosinophilia / Cytoplasmic vacuoles / Inflammation / Myocardial necrosis / Vascular congestion / Glutathione / Lipid Peroxidation: n = 4; for Glutathione / Lipid Peroxidation: heart tissue, Test Molecule 20 mg/kg p.o. 30 days + chronic Doxorubicin; for Glutathione / Lipid Peroxidation / Diastolic Blood Pressure / Mean Arterial Blood Pressure / Systolic Blood Pressure / Difference in Heart Rate / Difference in QT interval / Difference in QTc interval / Difference in ST interval: rats, Doxorubicin Control = Doxorubicin alone, Mean ± SEM; for Diastolic Blood Pressure / Mean Arterial Blood Pressure / Systolic Blood Pressure: Test Molecule 20 mg/kg p.o. 30 days + chronic Doxorubicin 3 mg/kg x 5; for Diastolic Blood Pressure / Mean Arterial Blood Pressure / Systolic Blood Pressure / Difference in Heart Rate / Difference in QT interval / Difference in QTc interval / Difference in ST interval: n = 6; for Difference in Heart Rate / Difference in QT interval / Difference in QTc interval / Difference in ST interval: pretreatment p.o. 30 days (Test Molecule 20 mg/kg) + Doxorubicin 3 mg/kg on days 1, 7, 14, 21, 28
Experimental: Male Wistar rats were pretreated with 20 mg/kg (p.o.) of test molecule for 30 days. On days 1, 7, 14, 21 and 28, Doxorubicin at a dose of 3 mg/kg […] was administered intravenously. On Day 30, animals were sacrificed for histopathological examination of the heart.

[4] = Water solubility of Garcinol and test molecule; format: physicochemical; details: room temperature
Source text: Garcinol is insoluble in water at room temperature.

[5] = system: Isoproterenol induced cardiac dysfunction; test: Cardioprotective activity of test molecule in Isoproterenol induced cardiac dysfunction; format: in vivo, Male Wistar rats; details: rats, Isoproterenol Control = Isoproterenol alone, Mean ± S.E.M.
Experimental: Male Wistar rats were pretreated with 20 mg/kg (p.o.) of test molecule 18 days. From Day 9, Isoproterenol at a dose of 1 mg/kg/day was administered intravenously for 10 days. Isoproterenol administration induced significant changes to the QT and ST interval. Isoproterenol induced oxidative stress was observed by decreased Glutathione (GSH) and increased lipid peroxidation concentrations in the heart.

[6] = system: Digitalis induced cardiac dysfunction; test: Cardioprotective activity of test molecule in Digitalis induced cardiac dysfunction; format: in vivo, Male Wistar rats
Experimental: Male Wistar rats were pretreated with 20 mg/kg (p.o.) of test molecule for 18 days. On Day 18, Digitalis at a three doses of 500 […] was administered intravenously with interval period of 15 min. After this, 200 […] was administered every 15 min continued upto cardiac arrest. Histopathological examination of the heart was conducted.

[7] = Doxorubicin Control = Doxorubicin alone, Mean ± SEM
[8] = Garcinol 100 mg/kg p.o. 18 days + Doxorubicin 10 mg/kg i.v. day 16, Doxorubicin Control = Doxorubicin alone, Mean ± SEM, n = 6
[9] = heart tissue, Test Molecule 20 mg/kg + Isoproterenol, n = 4
[10] = test molecule 20 mg/kg p.o. 18 days + Isoproterenol 1 mg/kg/day i.v. 10 days from Day 9, n = 5
[11] = heart histopathology, Digitalis induced cardiac dysfunction, n = 4
[12] = rats, test molecule 20 mg/kg p.o. 18 days + Digitalis i.v., Digitalis Control = Digitalis alone, Mean ± S.E.M, n = 4
[13] = rats, test molecule 20 mg/kg p.o. 18 days, then Digitalis i.v. every 15 min up to cardiac arrest, Digitalis Control = Digitalis alone, Mean ± S.E.M., n = 6

| Compound | Glutathione [1, 7] | Lipid Peroxidation [1, 7] | Glutathione [2] | Lipid Peroxidation [2] | Diastolic Blood Pressure [2] | Mean Arterial Blood Pressure [2] | Systolic Blood Pressure [2] | Difference in Heart Rate [2] | Difference in QT interval [2] | Difference in ST interval [2] | Cytoplasmic Eosinophilia [3] | Cytoplasmic vacuoles [3] | Inflammation [3] | Myocardial necrosis [3] | Vascular congestion [3] | Glutathione [3] | Lipid Peroxidation [3] | Diastolic Blood Pressure [3] | Mean Arterial Blood Pressure [3] | Systolic Blood Pressure [3] | also measured |
| --- | --- | --- | --- | --- | --- | --- | --- | --- | --- | --- | --- | --- | --- | --- | --- | --- | --- | --- | --- | --- | --- |
| COc1cccc2c1C(=O)c1c(O)c3c(c(O)c1C2=O)C[C@@](O)(C(=O)CO)C[C@@H]3O[C@H]1C[C@H](N)[C@H](O)[C@H](C)O1 [Doxorubicin] | 16.10 ± 1.17 μg/mg of protein | 4.56 ± 0.47 nmol of MDA/mg of Protein | 17.29 ± 0.4496 μg/mg of protein | 4.160 ± 0.3427 nmol of MDA/mg of Protein | 75.96 ± 3.611 mm Hg | 89.26 ± 1.837 mm Hg | 89.44 ± 5.108 mm Hg | −33.67 ± 15.96 bpm | 0.0229 ± 0.00206 s | 0.015 ± 0.001497 s | +++ ((+++) 60-90% of cells show changes) | ++ ((++) 30-60% of cells show changes) | +++ ((+++) 60-90% of cells show changes) | +++ ((+++) 60-90% of cells show changes) | ++ ((++) 30-60% of cells show changes) | 15.05 ± 0.8970 μg/mg of protein | 4.631 ± 0.3671 nmol of MDA/mg of Protein | 82.81 ± 1.997 mm Hg | 86.67 ± 0.9226 mm Hg | 92.59 ± 1.728 mm Hg | Number of Animals Deaths ([1]; Doxorubicin Control: Doxorubicin 10 mg/kg i.v. day 16 alone): 0/6; Difference in Heart Rate [1, 8]: −77.5 ± 19.63 bpm; Difference in QT interval [1, 8]: 0.014 ± 0.0035 s; Difference in ST interval [1, 8]: 0.0085 ± 0.0048 s; Difference in Heart Rate [3]: −64.59 ± 12.13 bpm; Difference in QT interval [3]: 0.015 ± 0.00087 s; Difference in QTc interval [3]: 0.035 ± 0.0046 s; Difference in ST interval [3]: 0.016 ± 0.0015 s |
| C=C(C)[C@@H](CC=C(C)C)C[C@@]12C[C@@H](CC=C(C)C)C(C)(C)[C@@](CC=C(C)C)(C(=O)C(C(=O)c3ccc(O)c(O)c3)=C1O)C2=O [Garcinol] | 22.05 ± 1.031 μg/mg of protein | 1.69 ± 0.04 nmol of MDA/mg of Protein | – | – | – | – | – | – | – | – | – | – | – | – | – | – | – | – | – | – | Water solubility [4]: insoluble; Animal mortality / toxicity (in words) ([1]; Garcinol 100 to 200 mg/kg p.o., Doxorubicin 10 mg/kg i.v.): animal mortality was observed |
| CC(C)NCC(O)c1ccc(O)c(O)c1 (stereo not shown) [Isoproterenol] | – | – | – | – | – | – | – | – | – | – | – | – | – | – | – | – | – | – | – | – | Glutathione [5, 9]: 19.02 ± 0.8526 μg/mg of protein; Lipid Peroxidation [5, 9]: 4.443 ± 0.0392 nmol of MDA/mg of Protein; Difference in Heart Rate [5, 10]: 43.66 ± 6.267 bpm; Difference in QT interval [5, 10]: 0.01686 ± 0.002 s; Difference in ST interval [5, 10]: 0.0180 ± 0.0009 s; Mean Arterial Blood Pressure [5, 10]: 72.45 ± 5.942 mm Hg |
| Cyclodextrin | – | – | 16.76 ± 0.4971 μg/mg of protein | 4.056 ± 0.2880 nmol of MDA/mg of Protein | 76.83 ± 1.709 mm Hg | 89.26 ± 2.357 mm Hg | 89.88 ± 4.507 mm Hg | −34.87 ± 6.935 bpm | 0.0225 ± 0.00091 s | 0.014 ± 0.001025 s | ++ ((++) 30-60% of cells show changes) | ++ ((++) 30-60% of cells show changes) | +++ ((+++) 60-90% of cells show changes) | +++ ((+++) 60-90% of cells show changes) | ++ ((++) 30-60% of cells show changes) | 15.15 ± 0.6584 μg/mg of protein | 4.700 ± 0.6126 nmol of MDA/mg of Protein | 80.00 ± 2.298 mm Hg | 88.04 ± 1.813 mm Hg | 92.22 ± 2.275 mm Hg | Difference in Heart Rate [3]: −66.22 ± 8.303 bpm; Difference in QT interval [3]: 0.015 ± 0.00437 s; Difference in QTc interval [3]: 0.033 ± 0.0092 s; Difference in ST interval [3]: 0.016 ± 0.0022 s |
| Digitalis | – | – | – | – | – | – | – | – | – | – | – | – | – | – | – | – | – | – | – | – | Cytoplasmic Eosinophilia [6, 11]: ++ ((++) 30-60% of cells show changes); Cytoplasmic vacuoles [6, 11]: ++ ((++) 30-60% of cells show changes); Inflammation [6, 11]: +++ ((+++) 60-90% of cells show changes); Myocardial necrosis [6, 11]: +++ ((+++) 60-90% of cells show changes); Vascular congestion [6, 11]: ++ ((++) 30-60% of cells show changes); Glutathione [6, 12]: 21.01 ± 0.5369 μg/mg of protein; Lipid Peroxidation [6, 12]: 6.909 ± 0.4459 nmol of MDA/mg of Protein; Dose of Digitalis required for inducing Arterial Fibrillation [6, 13]: 2933 ± 233.3 µg/kg; Dose of Digitalis required for inducing Cardiac Arrest [6, 13]: 3.067 ± 0.2801 mg/kg; Dose of Digitalis required for inducing Ectopic Beats [6, 13]: 2700 ± 212.9 µg/kg |
